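Method: 48-hour compound exposure of cells in 96-well plates, five concentrations, linear interpolation of endpoints. TGI marks complete inhibition of growth.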 A value given as a limit tells only on which side of the number the result lay.

Among the test systems are SW-620 colon; U251 CNS; A498 renal; UO-31 renal; SF-295 CNS; OVCAR-8 ovarian; 786-0 renal; RXF 393 renal; SR leukemia.
Experiment in all cases: growth of human tumour cells (NCI), 48 h

Take `COC(=O)c1oc([N+](=O)[O-])c(-c2ccccc2)c1-c1ccccc1`: the TGI with SW-620 colon, in the experiment on U251 CNS, in the experiment on A498 renal, in the experiment on UO-31 renal, with SF-295 CNS and with OVCAR-8 ovarian was over 100 µM throughout. The compound further came in with a TGI in the experiment with 786-0 renal of over 100 µM.

Consider `Cc1ccc(C)c(N2C(=O)C(=O)C(c3nc4ccccc4s3)C(=O)C2=O)c1`, for which the TGI in the experiment on SW-620 colon, in the experiment on U251 CNS, in the experiment with A498 renal, with RXF 393 renal, in the experiment on UO-31 renal and with SF-295 CNS was over 100 µM each time. In addition, the TGI in the experiment with OVCAR-8 ovarian and with 786-0 renal was over 100 µM throughout.

Regarding `OCC(O)COc1ccc(F)cc1` (stereo not drawn), the TGI in the experiment on SW-620 colon, in the experiment with U251 CNS, in the experiment with A498 renal, in the experiment with RXF 393 renal, with UO-31 renal and in the experiment on SF-295 CNS was over 100 µM in each case. In addition, the TGI in the experiment on OVCAR-8 ovarian, in the experiment with SR leukemia and in the experiment with 786-0 renal was over 100 µM each time.

In the case of `C=CCC1=C2CCCCC2CCC1=O` (stereo not drawn), the TGI in the experiment on SW-620 colon, in the experiment with U251 CNS, in the experiment with A498 renal, in the experiment with RXF 393 renal, with UO-31 renal and in the experiment with SF-295 CNS was over 100 µM in each case. The TGI in the experiment on OVCAR-8 ovarian and in the experiment on 786-0 renal was over 100 µM in each case.

For the compound `COC(=O)CCC(=O)C(CC(=O)OC)C(=O)CCC(=O)NCCc1ccccc1` (stereo not drawn), the TGI with SW-620 colon, in the experiment on U251 CNS, in the experiment on A498 renal, with RXF 393 renal, with UO-31 renal and with SF-295 CNS was over 100 µM each time. Moreover, the TGI with OVCAR-8 ovarian, in the experiment on SR leukemia and in the experiment on 786-0 renal was over 100 µM in each case.

For `CC1=CC=C2C(C)(C)CC[C@@H]3OC(=O)[C@H]1[C@]23C`, the TGI in the experiment on SW-620 colon, in the experiment with U251 CNS, in the experiment on A498 renal, with RXF 393 renal, in the experiment with UO-31 renal and in the experiment with SF-295 CNS was over 100 µM throughout. The TGI with OVCAR-8 ovarian, with SR leukemia and in the experiment on 786-0 renal was over 100 µM each time.

With `CC[C@H]1[C@@H](C)C=C[C@@H](C)N1S(=O)(=O)c1ccc(C)cc1`, the TGI was over 100 µM in the experiment on SW-620 colon; over 100 µM in the experiment with U251 CNS; over 100 µM with A498 renal; over 100 µM in the experiment on RXF 393 renal; 27.5 µM in the experiment with UO-31 renal; over 100 µM in the experiment with SF-295 CNS. Moreover, the TGI in the experiment with OVCAR-8 ovarian, in the experiment on SR leukemia and in the experiment with 786-0 renal was over 100 µM in each case.

Consider `CCC(CO)COC(=O)/C=C/C(=O)OCC(CC)CO` (stereo not drawn), for which the TGI in the experiment on SW-620 colon, in the experiment with U251 CNS, with A498 renal, in the experiment with RXF 393 renal, in the experiment on UO-31 renal and in the experiment with SF-295 CNS was over 100 µM in each case. Moreover, the TGI was over 100 µM in the experiment on OVCAR-8 ovarian, over 95.6 µM in the experiment on SR leukemia and over 100 µM with 786-0 renal.

For the compound `Cc1cc2c(=O)cc(-c3ccc(O)cc3)oc2c(C(=O)O)c1C`, the TGI in the experiment on SW-620 colon, with U251 CNS, in the experiment with UO-31 renal, in the experiment on SF-295 CNS, in the experiment on OVCAR-8 ovarian and in the experiment with SR leukemia was over 100 µM in each case. Moreover, the TGI with 786-0 renal was over 100 µM.

For the compound `CCOC(=O)c1sc(Nc2cc(Cl)ccc2Cl)nc1C`, the TGI in the experiment with SW-620 colon, in the experiment on U251 CNS, in the experiment with A498 renal, with RXF 393 renal, in the experiment with UO-31 renal and in the experiment on SF-295 CNS was over 100 µM in each case. The TGI in the experiment on OVCAR-8 ovarian, in the experiment with SR leukemia and with 786-0 renal was over 100 µM each time.

Turning to `O=C(O)COc1ccc2c3c1C(=O)CCC3CO2` (stereo not drawn), the TGI in the experiment with SW-620 colon, in the experiment with U251 CNS, in the experiment with A498 renal, with UO-31 renal, in the experiment with SF-295 CNS and with OVCAR-8 ovarian was over 100 µM in each case. Further, the TGI in the experiment with 786-0 renal is over 100 µM.

Take `CC(=O)OC1C(COC(N)=O)OC(n2c(-c3ccc(C)cc3)cc(-c3ccccc3)c(C#N)c2=O)C(OC(C)=O)C1OC(C)=O` (stereo not drawn): the TGI in the experiment with SW-620 colon, with U251 CNS, with A498 renal, in the experiment with RXF 393 renal, in the experiment on UO-31 renal and with SF-295 CNS was over 100 µM each time. For the same compound, the TGI in the experiment with OVCAR-8 ovarian, with SR leukemia and with 786-0 renal was over 100 µM each time.

As to `CN1C(=O)CNS1(=O)=O`, the TGI in the experiment with SW-620 colon, with U251 CNS, in the experiment with A498 renal, in the experiment on RXF 393 renal, in the experiment with UO-31 renal and in the experiment with SF-295 CNS was over 100 µM throughout. Besides, the TGI in the experiment on OVCAR-8 ovarian, with SR leukemia and in the experiment on 786-0 renal was over 100 µM in each case.

Consider `COC1OC(CO)C(O)C(NC(=O)N(C)N=O)C1O` (stereo not drawn), for which the TGI in the experiment with SW-620 colon, in the experiment with U251 CNS, with A498 renal, in the experiment on RXF 393 renal, in the experiment with UO-31 renal and with SF-295 CNS was over 100 µM each time. Besides, the TGI in the experiment with OVCAR-8 ovarian, with SR leukemia and with 786-0 renal was over 100 µM in each case.

Turning to `CN1C[C@@H]2CC(=O)CC[C@@H]2C[C@H]1C#N`, the TGI in the experiment with SW-620 colon, in the experiment with A498 renal, in the experiment with UO-31 renal, in the experiment on SF-295 CNS, in the experiment with OVCAR-8 ovarian and in the experiment with 786-0 renal was over 100 µM in each case.

Regarding `Cc1cc2c(=O)cc(-c3ccc(Cl)c(Cl)c3)oc2c(C(=O)O)c1C`, the TGI in the experiment on SW-620 colon, in the experiment on U251 CNS, in the experiment with RXF 393 renal, with UO-31 renal, in the experiment on SF-295 CNS and with OVCAR-8 ovarian was over 100 µM each time. The compound also returned a TGI in the experiment with 786-0 renal of over 100 µM.

For the compound `c1ccc2c(CNCCCN3CCN(CCCNCc4cccc5ccccc45)CC3)cccc2c1`, the TGI is 3.25 µM in the experiment on SW-620 colon; 3.16 µM with U251 CNS; 22.9 µM with A498 renal; 2.4 µM with RXF 393 renal; 3.22 µM in the experiment on UO-31 renal; 3.28 µM in the experiment on SF-295 CNS. For the same compound, the TGI turned out to be 4.03 µM with OVCAR-8 ovarian and 4.18 µM in the experiment on 786-0 renal.

Take `CN(CC(=O)O)S(=O)(=O)c1ccc(Cl)cc1`: the TGI with SW-620 colon, in the experiment on U251 CNS, with A498 renal, in the experiment with RXF 393 renal, in the experiment on UO-31 renal and in the experiment on SF-295 CNS was over 100 µM in each case. The TGI in the experiment on OVCAR-8 ovarian and with 786-0 renal was over 100 µM throughout.

With `CC(=O)Nc1ccc(S(=O)(=O)N/N=C/c2cc(I)cc([N+](=O)[O-])c2O)cc1`, the TGI in the experiment on SW-620 colon is over 100 µM; in the experiment with U251 CNS it was over 100 µM; in the experiment with A498 renal, over 100 µM; in the experiment with RXF 393 renal, 85.2 µM; in the experiment with UO-31 renal, over 100 µM; in the experiment with SF-295 CNS it was over 100 µM. The TGI in the experiment on OVCAR-8 ovarian and in the experiment on 786-0 renal was over 100 µM throughout.

Turning to `Cc1cc2c(=O)cc(-c3ccc(Cl)cc3Cl)oc2c(C(=O)O)c1C`, the TGI in the experiment on SW-620 colon, in the experiment on U251 CNS, with RXF 393 renal, in the experiment on UO-31 renal, in the experiment with SF-295 CNS and in the experiment on OVCAR-8 ovarian was over 100 µM in each case. The compound further had a TGI in the experiment on 786-0 renal of over 100 µM.

As to `Cc1ccccc1C(C#N)/C(=N/NC(N)=S)C(=O)Nc1c(C)cccc1C` (stereo not drawn), the TGI in the experiment on SW-620 colon, in the experiment on U251 CNS, in the experiment on RXF 393 renal, in the experiment on UO-31 renal, with SF-295 CNS and in the experiment on OVCAR-8 ovarian was over 100 µM each time. Besides, in the experiment on 786-0 renal, the TGI was over 100 µM.

`CCOc1ccc(N=C2NC(=O)C(CC(=O)Nc3ccc(Cl)cc3Cl)S2)cc1` (stereo not drawn): the TGI with SW-620 colon, with U251 CNS, in the experiment with A498 renal, in the experiment with UO-31 renal, in the experiment on SF-295 CNS and in the experiment with OVCAR-8 ovarian was over 100 µM each time. This compound also returned a TGI with 786-0 renal of over 100 µM.

Consider `CNC(=O)N(CCCC(NC(C)=O)C(=O)NCc1ccccc1)Cc1ccccc1` (stereo not drawn), for which the TGI in the experiment with SW-620 colon, in the experiment on U251 CNS, in the experiment with A498 renal, with RXF 393 renal, in the experiment on UO-31 renal and in the experiment on SF-295 CNS was over 100 µM each time. Moreover, the TGI in the experiment with OVCAR-8 ovarian and in the experiment with 786-0 renal was over 100 µM throughout.

In the case of `Cc1ccc(NC(=O)CC2SC(=Nc3cccc(Cl)c3C)NC2=O)cc1` (stereo not drawn), the TGI was over 100 µM in the experiment on SW-620 colon; over 100 µM with U251 CNS; over 100 µM in the experiment with A498 renal; 73.8 µM in the experiment with UO-31 renal; over 100 µM in the experiment with SF-295 CNS; over 100 µM in the experiment on OVCAR-8 ovarian. The compound also showed a TGI in the experiment on 786-0 renal of over 100 µM.

Turning to `Cc1cc2c(=O)cc(-c3ccc(C(=O)O)cc3)oc2c(C(N)=O)c1C`, the TGI in the experiment on SW-620 colon, with U251 CNS, with A498 renal, in the experiment on UO-31 renal, in the experiment on SF-295 CNS and with OVCAR-8 ovarian was over 100 µM each time. Also, the TGI with 786-0 renal is over 100 µM.
